Legend:
Assay type in all cases: in vivo
[1] = test system: windgrass (Apera spica-venti); assay: Test B postemergence plant response; conditions: for Windgrass plant response rating: postemergence, 0-100 scale; for Plant response rating, Windgrass: Postemergence
Method in brief: (§1)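 Visual injury ratings on a 0–100 scale, where 100 means complete control, were made 13 to 15 days after postemergence treatment of greenhouse-grown plants at the 1- to 4-leaf stage.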

[2] = test system: winter barley (Hordeum vulgare); assay: Test B postemergence plant response; conditions: for Plant response rating, Barley: Postemergence, scale 0 to 100, 0 no effect, 100 complete control
Method in brief: as §1

[3] = test system: yellow nutsedge (Cyperus esculentus); assay: Test B pre-/postemergence plant response
Method in brief: (§2)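 Visual scoring from 0 (no effect) to 100 (complete control) against untreated controls was done 13 to 15 days after greenhouse treatment. Chemicals were formulated in a surfactant-containing non-phytotoxic solvent and applied to soil preemergence or to 1- to 4-leaf (2-18 cm) plants postemergence.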

[4] = test system: common (oilseed) sunflower (Helianthus annuus); assay: Test B pre-/postemergence plant response; conditions: Preemergence; for Sunflower plant response rating: scale 0 to 100
Method in brief: as §2

[5] = test system: common ragweed (Ambrosia elation); assay: Test B pre-/postemergence plant response
Method in brief: as §2

[6] = test system: large crabgrass (Digitaria sanguinalis); assay: Test B pre-/postemergence plant response
Method in brief: as §2

[7] = test system: wild oat (Avena fatua); assay: Test B pre-/postemergence plant response
Method in brief: as §2

[8] = test system: blackgrass (Alopecurus myosuroides); assay: Test B pre-/postemergence plant response; conditions: for Blackgrass plant response rating: 8 g ai/ha
Method in brief: as §2

[9] = test system: wheat (Triticum aestivum); assay: Test B pre-/postemergence plant response
Method in brief: as §2

[10] = test system: lambsquarters (Chenopodium album); assay: Test B pre-/postemergence plant response
Method in brief: as §2

[11] = test system: cocklebur (Xanthium strumarium); assay: Test B pre-/postemergence plant response; conditions: for Cocklebur plant response rating: 8 g ai/ha
Method in brief: as §2

[12] = test system: giant foxtail (Setaria faberii); assay: Test B pre-/postemergence plant response
Method in brief: as §2

[13] = test system: catchweed bedstraw (Galium aparine); assay: Test B pre-/postemergence plant response; conditions: Preemergence
Method in brief: as §2

[14] = test system: goosegrass (Eleusine indica); assay: Test B pre-/postemergence plant response
Method in brief: as §2

[15] = test system: johnsongrass (Sorghum halepense); assay: Test B pre-/postemergence plant response
Method in brief: as §2

[16] = 8 g ai/ha, postemergence, 0-100 scale
[17] = 16 g ai/ha, postemergence, 0-100 scale
[18] = Postemergence, 31 g ai/ha, scale 0 to 100
[19] = Postemergence, 62 g ai/ha, scale 0 to 100, 0 no effect, 100 complete control
[20] = Preemergence, 31 g ai/ha, scale 0 to 100 (0 no effect, 100 complete control)
[21] = Preemergence, 62 g ai/ha, 0 to 100 scale, 0 no effect, 100 complete control
[22] = Preemergence, 8 g ai/ha, scale 0 to 100
[23] = Preemergence, 16 g ai/ha, scale 0 to 100
[24] = 31 g ai/ha, scale 0 to 100 (0 no effect, 100 complete control)
[25] = 62 g ai/ha, 0 to 100 scale, 0 no effect, 100 complete control
[26] = Postemergence, 16 g ai/ha, scale 0 to 100
[27] = Preemergence, 16 g ai/ha, scale 0 to 100 (0 no effect, 100 complete control)

In the case of `CCc1cc(-c2ccc(Br)cc2)nn1-c1c(O)cnn(C)c1=O` [Compound 61], the “Windgrass plant response rating” value ([1]; 8 g ai/ha) is reported as 90, the “Windgrass plant response rating” value ([1]; 16 g ai/ha) is reported as 100 and the “Plant response rating, Windgrass” value ([1]; 31 g ai/ha, scale 0 to 100) is reported as 100. The “Plant response rating, Windgrass” value ([1]; 62 g ai/ha, scale 0 to 100, 0 no effect, 100 complete control) was 100, the “Barley plant response rating” value [2, 16] was 70 and the “Plant response rating, Barley” value ([2]; 16 g ai/ha) was 90. For the same compound, the “Plant response rating, Barley” value ([2]; 31 g ai/ha) was 90, the “Plant response rating, Barley” value ([2]; 62 g ai/ha) was 90 and the “Nutsedge, Yellow plant response rating” value [3, 16] was 0. The “Nutsedge, Yellow plant response rating” value [3, 17] was 0, the “Plant response rating, Nutsedge, Yellow” value [3, 18] was 0 and the “Plant response rating, Nutsedge, Yellow” value [3, 19] was 0. For the same compound, the “Plant response rating, Nutsedge, Yellow” value [3, 20] was 0, the “Plant response rating, Nutsedge, Yellow” value [3, 21] was 0 and the “Nutsedge, Yellow plant response rating” value [3, 22] was 0. For the same compound, the “Nutsedge, Yellow plant response rating” value [3, 23] was 0, the “Plant response rating, Sunflower” value [4, 24] was 0 and the “Plant response rating, Sunflower” value [4, 25] was 0. For the same compound, the “Sunflower plant response rating” value ([4]; 8 g ai/ha) was 0, the “Sunflower plant response rating” value ([4]; 16 g ai/ha) was 0 and the “Ragweed plant response rating” value [5, 16] was 0. The “Ragweed plant response rating” value [5, 17] was 0, the “Plant response rating, Ragweed” value [5, 18] was 0 and the “Plant response rating, Ragweed” value [5, 19] was 0. For the same compound, the “Plant response rating, Ragweed” value [5, 20] was 0, the “Plant response rating, Ragweed” value [5, 21] was 0 and the “Ragweed plant response rating” value [5, 22] was 0. For the same compound, the “Ragweed plant response rating” value [5, 23] was 0, the “Crabgrass, Large plant response rating” value [6, 16] was 98 and the “Plant response rating, Crabgrass, Large” value [6, 26] was 100. The “Plant response rating, Crabgrass, Large” value [6, 18] was 100, the “Plant response rating, Crabgrass, Large” value [6, 19] was 100 and the “Plant response rating, Crabgrass, Large” value [6, 20] was 100. For the same compound, the “Plant response rating, Crabgrass, Large” value [6, 21] was 100, the “Crabgrass, Large plant response rating” value [6, 22] was 50 and the “Crabgrass, Large plant response rating” value [6, 23] was 95. The “Oat, Wild plant response rating” value [7, 16] was 100, the “Oat, Wild plant response rating” value [7, 17] was 100 and the “Plant response rating, Oat, Wild” value [7, 18] was 100. For the same compound, the “Plant response rating, Oat, Wild” value [7, 19] was 100, the “Plant response rating, Oat, Wild” value [7, 20] was 95 and the “Plant response rating, Oat, Wild” value [7, 21] was 100. The “Oat, Wild plant response rating” value [7, 22] was 40, the “Oat, Wild plant response rating” value [7, 23] was 90 and the “Blackgrass plant response rating” value ([8]; postemergence, 0-100 scale) was 85. For the same compound, the “Plant response rating, Blackgrass” value [8, 26] was 100, the “Plant response rating, Blackgrass” value [8, 18] was 100 and the “Plant response rating, Blackgrass” value [8, 19] was 100. For the same compound, the “Plant response rating, Blackgrass” value [8, 27] was 100, the “Plant response rating, Blackgrass” value [8, 20] was 100 and the “Plant response rating, Blackgrass” value [8, 21] was 100. The “Blackgrass plant response rating” value ([8]; Preemergence, scale 0 to 100) was 40, the “Wheat plant response rating” value [9, 16] was 90 and the “Wheat plant response rating” value [9, 17] was 95. For the same compound, the “Plant response rating, Wheat” value [9, 18] was 98, the “Plant response rating, Wheat” value [9, 19] was 100 and the “Plant response rating, Wheat” value [9, 20] was 90. For the same compound, the “Plant response rating, Wheat” value [9, 21] was 95, the “Wheat plant response rating” value [9, 23] was 30 and the “Lambsquarters plant response rating” value [10, 16] was 0. The “Lambsquarters plant response rating” value [10, 17] was 0, the “Plant response rating, Lambsquarters” value [10, 18] was 0 and the “Plant response rating, Lambsquarters” value [10, 19] was 0. For the same compound, the “Plant response rating, Lambsquarters” value [10, 20] was 0, the “Plant response rating, Lambsquarters” value [10, 21] was 0 and the “Lambsquarters plant response rating” value [10, 22] was 0. The “Lambsquarters plant response rating” value [10, 23] was 0, the “Cocklebur plant response rating” value ([11]; postemergence, 0-100 scale) was 0 and the “Plant response rating, Cocklebur” value [11, 26] was 0. The “Plant response rating, Cocklebur” value [11, 18] was 0, the “Plant response rating, Cocklebur” value [11, 19] was 0 and the “Plant response rating, Cocklebur” value [11, 27] was 0. The “Plant response rating, Cocklebur” value [11, 20] was 0, the “Plant response rating, Cocklebur” value [11, 21] was 0 and the “Cocklebur plant response rating” value ([11]; Preemergence, scale 0 to 100) was 0. For the same compound, the “Foxtail, Giant plant response rating” value [12, 16] was 98, the “Plant response rating, Foxtail, Giant” value [12, 26] was 100 and the “Plant response rating, Foxtail, Giant” value [12, 18] was 100. The “Plant response rating, Foxtail, Giant” value [12, 19] was 100, the “Plant response rating, Foxtail, Giant” value [12, 20] was 100 and the “Plant response rating, Foxtail, Giant” value [12, 21] was 100. The “Foxtail, Giant plant response rating” value [12, 22] was 75, the “Foxtail, Giant plant response rating” value [12, 23] was 100 and the “Plant response rating, Galium” value [13, 24] was 0. For the same compound, the “Plant response rating, Galium” value [13, 25] was 0, the “Galium plant response rating” value ([13]; 8 g ai/ha, scale 0 to 100) was 0 and the “Goosegrass plant response rating” value [14, 16] was 98. For the same compound, the “Goosegrass plant response rating” value [14, 17] was 100, the “Plant response rating, Goosegrass” value [14, 18] was 100 and the “Plant response rating, Goosegrass” value [14, 19] was 100. For the same compound, the “Plant response rating, Goosegrass” value [14, 20] was 100, the “Plant response rating, Goosegrass” value [14, 21] was 100 and the “Goosegrass plant response rating” value [14, 22] was 80. The “Goosegrass plant response rating” value [14, 23] was 100, the “Johnsongrass plant response rating” value [15, 16] was 65 and the “Johnsongrass plant response rating” value [15, 17] was 100. The “Plant response rating, Johnsongrass” value [15, 18] was 100, the “Plant response rating, Johnsongrass” value [15, 19] was 100 and the “Plant response rating, Johnsongrass” value [15, 20] was 100. The “Plant response rating, Johnsongrass” value [15, 21] was 100, the “Johnsongrass plant response rating” value [15, 22] was 90 and the “Johnsongrass plant response rating” value [15, 23] was 95.
